Substitutions are numbered along the chain they refer to.
How the values were obtained:
[1] = target: T1, LCAD (long-chain acyl-CoA dehydrogenase) (Homo sapiens, UniProt P28330, K333Q); experiment: acyl-CoA oxidase assay; type: biochemical; conditions: oxygen as electron acceptor; 50 mM phosphate pH 7.0, 30 °C
T1 sequence (P28330 31-430 K333Q): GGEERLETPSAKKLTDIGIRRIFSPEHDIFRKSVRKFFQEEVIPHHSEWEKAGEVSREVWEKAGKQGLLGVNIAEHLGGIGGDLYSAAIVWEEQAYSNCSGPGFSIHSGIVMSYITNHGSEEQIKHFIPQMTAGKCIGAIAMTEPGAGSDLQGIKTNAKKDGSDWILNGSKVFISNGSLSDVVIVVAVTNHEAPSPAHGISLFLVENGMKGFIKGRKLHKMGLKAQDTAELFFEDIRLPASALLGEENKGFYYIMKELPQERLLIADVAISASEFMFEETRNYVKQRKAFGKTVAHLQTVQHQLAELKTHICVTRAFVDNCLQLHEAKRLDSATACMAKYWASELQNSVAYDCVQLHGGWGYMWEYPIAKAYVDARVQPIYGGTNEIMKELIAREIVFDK

[2] = target: T2, LCAD (long-chain acyl-CoA dehydrogenase) (Homo sapiens, UniProt P28330); experiment: acyl-CoA oxidase assay; type: biochemical; conditions: oxygen as electron acceptor; 50 mM phosphate pH 7.0, 30 °C
T2 sequence (P28330 31-430): T1 sequence (P28330 31-430 K333Q) with Q303K

[3] = target: T2, LCAD (long-chain acyl-CoA dehydrogenase); experiment: absorbance scan, A443/A280 FAD content; type: binding; conditions: 100 uM free FAD, 37 °C, 20 min, then dialysis; non-covalent FAD

Structure (SMILES) | acyl-CoA oxidase assay (HRP / Amplex UltraRed fluorescence, H2O2) [1] | acyl-CoA oxidase assay (HRP / Amplex UltraRed fluorescence, H2O2) [2] | A443/A280 [3]
CCCCCCCCCCCCCCCCCC(=O)SCCNC(=O)CCNC(=O)[C@H](O)C(C)(C)COP(=O)(O)OP(=O)(O)OC[C@H]1O[C@@H](n2cnc3c(N)ncnc32)[C@H](O)[C@@H]1OP(=O)(O)O [C18-CoA, stearoyl-CoA] | the presence of the K333Q substitution significantly reduced oxidase activity | C18-CoA was used as substrate as this chain length produces the highest H2O2 production | 
Cc1cc2nc3c(=O)[nH]c(=O)nc-3n(C[C@H](O)[C@H](O)[C@H](O)COP(=O)(O)OP(=O)(O)OC[C@H]3O[C@@H](n4cnc5c(N)ncnc54)[C@H](O)[C@@H]3O)c2cc1C [FAD] |  |  | After incubation of wild-type LCAD with FAD, the A443/A280 ratio, an indicator of enzyme-bound FAD

Reference: article PMC7606262 (Molecular genetics and metabolism, 2020)
